Counter-ions that a name gives are not always drawn.
Assays:
[1] = test system: A549 cells; assay: MTT cell proliferation assay, kinase inhibitor plus lometrexol, A549 cells; format: cell-based; details: for IC50 in A549 cells in the presence of increasing concentrations of lometrexol: 48 hours incubation, MTT, IC50 calculated from the untreated cells, FIG. 1 and FIG. 2
Description: (§1) A549 and MDA-MB-231 cells were obtained from the ATCC. Cells were propagated in 75 cm^2 flasks in RPMI 1640 medium with 10% fetal bovine serum, 1% penicillin/streptomycin, and 1% glutamine. To initiate the experiment, cells were plated into 96-well plates at 3000 cells/well with the top and bottom rows containing media only as a negative control. The cells were incubated at 37° C. for 15 hours to allow the cells to adhere. After 15 hours, freshly prepared solutions of lometrexol and the appropriate kinase inhibitor (AG1478 or indirubin-3′-monoxime) at the desired dose were added to the media in varying concentrations in a 5×8 matrix of concentrations. Each plate also contained wells that contained medium only and no added compound. The cells were then incubated for 48 hours with the compounds. The relative cell number was determined using the cell proliferation assay reagent MTT. This reagent is converted by mitochondrial dehydrogenases to a colored formazan product that is then quantified by spectrophotometric analysis. […] The relative effect of the compounds was determined by the percentage of the untreated control cells.
The IC50 value was calculated from the untreated cells. […]. […] The data are presented as % growth relative to cells treated with lometrexol alone. The total incubation time with the compounds was 48 hours.

[2] = Storage stability of drug product / reconstituted solution; format: physicochemical; details: reconstituted with 0.9% sodium chloride to approximately 10 mg/mL; vials contain no preservative
Description: Lometrexol sodium for injection is supplied for the study as a lyophilised off-white crystalline solid in single-use vials containing either 50 mg or 200 mg of lometrexol sodium. Vials are stored at room temperature and protected from light. Lometrexol sodium is reconstituted with 0.9% sodium chloride for injection to a concentration of approximately 10 mg/mL. […] Lometrexol sodium is not known to be a vesicant. Lometrexol sodium is administered on Day 1 of every 21-day cycle as a rapid (i.e., 30 to 60 seconds) intravenous bolus immediately prior to the dose of carboplatin. At each dose level shown in Table 1, the appropriate dose of lometrexol sodium is based on the patient's actual calculated body surface area (BSA) at the beginning of each cycle. Note: If the patient's BSA is >2.0 m^2 the dose is calculated using a maximum BSA of 2.0 m^2.
Doxorubicin HCl is available commercially available from several manufacturers in liquid or lyophilised form. The lyophilised powder is stable for 2 years when stored at room temperature and away from direct light. The commercial solution formulations must be stored under refrigeration. […] At each dose level shown in Table 2, the appropriate dose of doxorubicin is based on the patient's actual calculated body surface area (BSA) at the beginning of each 21-day cycle. […]

[3] = cited from earlier work
[4] = cited from earlier work; remark: listed apart in the source
[5] = test system: phosphorylated EGFR; assay: EGFR phosphorylation in stimulated A549 cells (immunoprecipitation, western blot, densitometry); format: cell-based; details: 24 hours, then 10% fetal bovine serum + 50 ng/ml EGF for 3 hours, FIG. 4
Description: The A549 lung adenocarcinoma cell line was grown under normal cell culture conditions. The cells were plated in 100 mm^2 dishes in RPMI 1640 culture medium containing 1% penicillin/streptomycin, 1% glutamine and 10% fetal bovine serum. The cells were allowed to grow to >95% confluence. Thereafter, the cells were rinsed twice with phosphate-buffered saline followed by the addition of low-serum medium (RPMI 1640 with 1% penicillin/streptomycin and 0.5% fetal bovine serum).
Lometrexol was added in amounts sufficient to achieve incubation concentrations of 0.004, 0.02, 0.1, 0.5 and 2.5 μg/ml. The cells were incubated in the low-serum medium with lometrexol for 24 hours. After the 24-hour incubation, the concentration of fetal bovine serum was increased to 10%, and 50 ng/ml EGF was added to the cells in the presence of lometrexol. The cells were incubated with these stimulants (fetal bovine serum and EGF) for 3 hours. […] The immunoprecipitated protein was separated by SDS-PAGE, and the amount of phosphorylated EGFR was determined by western blot analysis of the resulting gel using chemiluminescent detection. The blot was probed with an antibody that is specific for the activated, phosphorylated form of EGFR (Chemicon, Temecula, Calif.), and the resulting photographic film was analyzed by densitometry.

[6] = test system: ATP concentration in A549 cells; assay: Cellular ATP by luminescent method CellTiter Glo in A549 cells; format: cell-based; details: 24 hours incubation with lometrexol, FIG. 5, average of triplicate measurements
Description: A549 cells were propagated in 75 cm^2 flasks in RPMI 1640 medium with 10% fetal bovine serum, 1% penicillin/streptomycin, and 1% glutamine. To initiate the experiment, cells were plated into 96-well plates at 3000 and 10,000 cells/well with the top and bottom rows containing media only as a negative control. The cells were incubated at 37° C. for 15 hours to allow the cells to adhere. After 15 hours, freshly prepared solutions of lometrexol at the desired dose were added to the media in varying concentrations. Each plate also contained wells that contained medium only and no added compound. The cells were then incubated for 24 hours and the amount of ATP was determined by a luminescent method, CellTiter Glo™ (Promega, Madison, Wis.). Concurrently, the cell number was determined in duplicate rows so that the relative ATP concentration per number of cells could be determined. As depicted in FIG. 5 (average of triplicate measurements), the ATP concentration per million cells was decreased in cells treated with lometrexol at concentrations similar to those where the EGFR phosphorylation was effected and at concentrations similar to those which potentiate kinase inhibitors.

[7] = test system: MDA-MB-231 cells; assay: MTT cell proliferation assay, kinase inhibitor plus lometrexol, MDA-MB-231 cells; format: cell-based; details: showing only mild growth inhibition by EGF
Description: as §1, with “cells. […]” for “cells.”

For `COc1cc2ncnc(Nc3cccc(Cl)c3)c2cc1OC` [tyrphostin AG1478, 4-(3-chloroanilino)-6,7-dimethoxyquinazoline], the “IC50 in A549 cells in the presence of increasing concentrations of lometrexol” value [1] was “decrease in IC50”.
In the case of indirubin-3′-monoxime, the “IC50 in A549 cells in the presence of increasing concentrations of lometrexol” value [1] is reported as “decrease in IC50”.
With `Nc1nc2c(c(=O)[nH]1)C[C@@H](CCc1ccc(C(=O)N[C@@H](CCC(=O)O)C(=O)O)cc1)CN2` [Lometrexol sodium] the “time to use after reconstitution” value [2] was no more than 1 h.
In the case of `COc1cccc2c1C(=O)c1c(O)c3c(c(O)c1C2=O)C[C@@](O)(C(=O)CO)C[C@@H]3O[C@H]1C[C@H](N)[C@H](O)[C@H](C)O1` [Doxorubicin HCl], the “storage time of reconstituted solution” value ([3]; reconstituted with sterile water for injection or 0.9% sodium chloride) is given as “up to 24 hours” and the “stability of lyophilised powder” value ([3]; stored at room temperature and away from direct light) is given as 2 years.
For `Nc1ccn([C@@H]2O[C@H](CO)[C@@H](O)C2(F)F)c(=O)n1` [Gemcitabine HCl], the “solubility in ethanol and polar organic solvents” value ([4]; ethanol and polar organic solvents) is listed as “insoluble”, the solubility in methanol ([4]; methanol) is listed as “slightly soluble” and the solubility in water ([4]; water) is listed as “soluble”.
For `Nc1nc2c(c(=O)[nH]1)CC(CCc1ccc(C(=O)N[C@@H](CCC(=O)O)C(=O)O)cc1)CN2` (stereo partly shown) [lometrexol, 5,10-dideazatetrahydrofolic acid], the “lometrexol potentiation of kinase inhibitor growth inhibition” value ([1]; cell line sensitive to EGF stimulation) was “potentiation is observed”, the “relative amount of phosphorylated-EGFR per mg protein in the cell lysate” value ([5]; lometrexol 0.004, 0.02 and 0.1 μg/ml) was 37-56 % of control and the “relative phosphorylated-EGFR” value ([5]; lometrexol 0.5 and 2.5 μg/ml) was ≥ 3 % of the activated-control. The “ATP concentration per million cells” value [6] was “decreased” and the “lometrexol potentiation of kinase inhibitor growth inhibition” value [7] was “no observed potentiation”.

Reference: patent US20020156023A1, “Lometrexol combination therapy” (Tularik Inc., priority 2000, published 2002)
